Measurements as given in patent US20060241174A1, “Vitamin E tocotrienols inhibition of intracellularly obligate pathogen Chlamydia and methods of use” (priority 2005, published 2006).

Columns and labels:
C. trachomatis serovar K [1] = experiment: Inclusion count by immunofluorescence in C. trachomatis-infected mouse macrophages (J774A.1) treated with delta tocotrienol; format: cell-based, Chlamydia trachomatis
Protocol: FIG. 3 illustrates Chlamydia-infected mouse macrophage cells treated with delta tocotrienol (400× magnification). Mouse macrophages (J774A. 1 cells) were pretreated with a 30 μmol/L concentration of delta tocotrienol in culture for 4 hours and infected with C. trachomatis SVK for 48 hours. Arrows indicate inclusions. Cells were viewed and digitally documented using a Zeiss LSM 510 Meta Confocal System at a magnification of 400×. White arrows point out characteristic inclusions (Scale indicates 50 μm).
FIG. 4 illustrates Chlamydia-infected mouse macrophage cells treated with delta tocotrienol (630× magnification). White arrows point to representative cells. Note numerous very small, unfused inclusions in A (Scale indicates 50 μm).
Chlamydial Strains: Stocks of C. trachomatis serovar K/VR887 were grown in J774A.1 cells without centrifuge assistance. Infected cells were lysed, this stock aliquoted and frozen down in SPG freeze medium (75.0 g sucrose, 0.52 g potassium phosphate, 1.22 g sodium phosphate dibasic, 0.72 g glutamic acid, diluted in […] ddH2O). These aliquots were stored in liquid N2 or at −80° C., and later thawed for use to infect monolayers.
Cell Lines Used: Mouse macrophages (J774A.1), human mammary tumor cells (MCF-7), and human epithelial cells (Hep-2), were obtained from the American Type Culture collection. Human mammary tumor cells (TMX2-28) were a kind gift from Dr. Arcaro, and human B-lymphocytes (JY) were a kind gift from Dr. Eric Martz. All cell lines were maintained in Richter's improved MEM insulin (IMEMZO, Irvine Scientific, Santa Ana, Calif.) with 5% fetal bovine serum (FBS, Atlanta Biologicals, Norcross, Ga.). Cells were grown to 80% confluence on 12 mm coverslips in 12 well plates (Becton Dickinson Labware, Franklin Lakes, N.J.). A dilution of 1:125 or 1:200 of the C. trachomatis serovar K stock was made using the standard complete cycloheximide overlay media (Bio-Whittaker, Walkersville, Md.) containing 10% FBS, and 1× L-glutamine (CCOM). This was layered onto the coverslip containing monolayers, and incubated for 24-48 hours at 37° C. with 5% CO2. Coverslips with the cell monolayers were harvested, rinsed with phosphate buffered saline (PBS), fixed with 70% cold methanol, stored and subsequently immunostained.
Delta Tocotrienol Treatment: A stock of delta tocotrienol (98% purity, American River Nutrition, Hadley, Mass.) was diluted to 1 mg/1 ml in absolute ethanol [EtOH]. Confluent monolayers of J774A.1, MCF-7, TMX2-28, JY, or Hep-2 cells were treated with 5, 10, 20, 30, or 40 μmol/L concentrations of delta tocotrienol. Treatment occurred 5 hours prior to infection with C. trachomatis serovar K, at point of infection, or three hours post-infection.
Immunostaining: Briefly, infected cells were immunostained with a 1:2 dilution of guinea pig anti-chlamydia polyclonal antibody (Biomeda, Foster City, Calif.), or a 1:125 dilution of rabbit anti-chlamydia EB whole serum for 1 hour at 37° C. Following PBS rinses X3, the bound antibodies were detected using a 1:100 dilution of FITC-conjugated donkey anti-guinea pig or a 1:125 dilution of TRITC-conjugated goat anti-rabbit secondary antibodies (Jackson ImmunoResearch, West Grove, Pa.). Following incubation for 1 hour at room temperature and 3 rinses with PBS, coverslips were mounted onto slides using Fluoromount-G (Southern Biotechnology Associates Inc., Birmingham, Ala.) or Vectashield® Mounting Medium with DAPI (Vector Laboratories, Inc., Burlingame, Calif.), and were then sealed. Initially, slides were examined at 400× using a Nikon LABPHOT-2. For photography, slides were assessed in the Massachusetts Central Microscopy Facility using a Zeiss LSM 510 Meta Confocal System and 630× magnification. Images were captured, and as relevant, merged using the Confocal Assistant™ version 4.02 Image Processing Software.
Counts on all coverslips with experimental conditions as in FIG. 3 and 4 were done for the average of 10 fields of view. […]

tumors = conditions: background statement, no source given; cited from earlier work
C. trachomatis serovar K [2] = experiment: Infection of delta tocotrienol-pretreated cell lines (J774A.1, MCF-7, TMX2-28, Hep-2, JY), immunofluorescence with microscopy or flow cytometry; format: cell-based, Chlamydia trachomatis; conditions: 10-30 μmol/L for 6 hours prior to infection
Protocol: Delta tocotrienol is a vitamin E compound also available as dietary supplement. […] Since Chlamydia species enter cells via cholesterol-rich lipid raft domains involved in cholesterol trafficking, tocotrienols in general and hypocholesterolemic delta tocotrienol in particular will reduce infection by Chlamydia. Mouse macrophages (J774A.1), human mammary tumor cells (MCF-7, TMX2-28), human epithelial cells (Hep-2), and human B-lymphocytes (JY) were incubated with delta tocotrienol at concentrations of 10-30 μmol/L for 6 hours prior to infection by C. trachomatis serovar K, a subspecies of Chlamydia that is the primary cause of bacteria-initiated STD. Infections were detected by immunofluorescence staining followed by either microscopy or quantitative flow cytometric analysis. Infection levels in cells pretreated with delta-tocotrienol were decreased by >50%, with concomitant aberrant pathogen development observed with confocal microscopy. The number of large and small inclusions in the delta tocotrienol-versus-control cells was decreased by 3- and 2-fold, respectively. […] The impact of dietary delta tocotrienol on Chlamydia infection in hyperlipidemic patients is being examined in a clinical study. Cholesterol-suppressive delta tocotrienol may have the potential to reduce Chlamydia infection in humans.

[3] = First Infection, J774A.1, 30 μmol/L
[4] = Second Infection, J774A.1, 30 μmol/L
[5] = Third Infection, J774A.1, 30 μmol/L

delta tocotrienol
morphology of chlamydial inclusions (FIG. 4) (C. trachomatis serovar K [1]; 20-40 μmol/L delta tocotrienol, Chlamydia-specific immunofluorescence staining): immature, small, and less round | Inclusions (per field of view), Small (≦10 μm) (C. trachomatis serovar K [1]; [3]): 4.5 per field of view | Inclusions (per field of view), Total (C. trachomatis serovar K [1]; [3]): 5.2 per field of view | Inclusions Total/Cell (C. trachomatis serovar K [1]; [3]): 0.058 | Inclusions (per field of view), Large (15-20 μm) (C. trachomatis serovar K [1]; First Infection, J774A.1, 30 μmol/L delta tocotrienol, average of 10 fields of view): 0.7 per field of view | Percent Inhibition (C. trachomatis serovar K [1]; First Infection, treated vs control, J774A.1, 30 μmol/L): 52.3% | large, mature inclusions (FIG. 3) (C. trachomatis serovar K [1]; J774A.1, 30 μmol/L pretreatment, 48 hours infection, 400× magnification): no evidence of large, mature inclusions | size of large inclusions in the tocotrienol-treated cells (C. trachomatis serovar K [1]; J774A.1, control cells 20 μm): 10-15 μm | inclusions thinner than in control cells (Z-axis) (C. trachomatis serovar K [1]; J774A.1, optical sections, treated vs control): 3 fold | inclusions smaller than in control cells (X-Y axes) (C. trachomatis serovar K [1]; J774A.1, treated vs control): 2 to 3 fold | Inclusions (per field of view), Large (15-20 μm) (C. trachomatis serovar K [1]; Second Infection (supernatant transfer to uninfected treated cells), J774A.1, 30 μmol/L): 1.4 per field of view | Inclusions (per field of view), Small (≦10 μm) (C. trachomatis serovar K [1]; [4]): 0.6 per field of view | Inclusions (per field of view), Total (C. trachomatis serovar K [1]; [4]): 2.0 per field of view | Inclusions Total/Cell (C. trachomatis serovar K [1]; [4]): 0.032 | Percent Inhibition (C. trachomatis serovar K [1]; Second Infection, treated vs control, J774A.1, 30 μmol/L): 43.8% | Inclusions (per field of view), Large (15-20 μm) (C. trachomatis serovar K [1]; [5]): 0.7 per field of view | Inclusions (per field of view), Small (≦10 μm) (C. trachomatis serovar K [1]; [5]): 1.1 per field of view | Inclusions (per field of view), Total (C. trachomatis serovar K [1]; [5]): 1.8 per field of view | Inclusions Total/Cell (C. trachomatis serovar K [1]; [5]): 0.016 | Percent Inhibition (C. trachomatis serovar K [1]; Third Infection, treated vs control, J774A.1, 30 μmol/L): 39.0% | chlamydial inclusion volume smaller than control (C. trachomatis serovar K [1]; calculated (2×3 to 3×3)): 6-9 fold | percent inhibition of inclusion formation in tocotrienol-treated as compared to untreated cells (C. trachomatis serovar K [1]; summary of Table 1, 30 μmol/L): 40-50% | number of chlamydial inclusions (immunofluorescence staining) (C. trachomatis serovar K [1]; tocotrienol-treated cells vs control, FIG. 3, Table 1): decreased significantly | reduction of tumors (tumors): ≤ 70% | decrease in number of large inclusions versus control cells (C. trachomatis serovar K [2]): 3 fold | decrease in number of small inclusions versus control cells (C. trachomatis serovar K [2]): 2 fold | decrease of infection levels in pretreated cells (C. trachomatis serovar K [2]): > 50%
